Assay results as given in US7205311B2, “Therapeutic acridone and acridine compounds” (Cancer Research Technology Limited, priority 2002, dated 2007).

Tests used:
telomerase = experiment: Modified telomeric repeat amplification protocol (TRAP) assay, cell-free; type: biochemical; conditions: extracts from A2780 human ovarian carcinoma cells, salts, read-out: telIC50
Procedure: The ability of compounds to inhibit telomerase in a cell-free assay was assessed with a modified TRAP assay using extracts from exponentially growing A2780 human ovarian carcinoma cells. The TRAP assay was performed in 2 steps: (a) telomerase-mediated extension of the forward primer (TS: 5′-AATCCGTCGAGCAGAGTT, Oswel Ltd., Southampton, UK) contained in a 40 μL reaction mix comprising TRAP buffer (20 mM Tris-HCl (pH 8.3), 68 mM KCl, 1.5 mM MgCl2, 1 mM EGTA, 0.05% v/v Tween 20), 0.05 μg bovine serum albumin, 50 μM of each deoxynucleotide triphosphate, 0.1 μg TS primer, and […] of [α-^32P]dCTP (Amersham pic, UK). Protein (40 ng or 20 ng) was then incubated with the reaction mix+agent (acid addition and quaternary dimethiodide salts) at final concentrations of up to 50 μM for 20 min at 25° C. A lysis buffer (no protein) control, heat-inactivated protein control, and 50% protein (20 ng or 10 ng) control were included in each assay; and (b) while heating at 80° C. in a PCR block of a thermal cycler (Hybaid, UK) for 5 min to inactivate telomerase activity, 0.1 μg of reverse CX primer (3′-[…]-5′) and 2 Units of Taq DNA polymerase (“red hot”, Advanced Biotechnologies) were added. A 3-step PCR was then performed: 94° C. for 30 s, 50° C. for 30 s, and 72° C. for 1 min for 31 cycles. Telomerase-extended PCR products in the presence or absence of compounds were then determined either by electrophoretic separation using 8% w/w acrylamide denaturing gels and analysis by phosphorimaging or autoradiography, or by harvesting on Whatman filters (25 mm glass microfibre) and analysis by liquid scintillation counting.

[1] = Growth inhibition, sulforhodamine B (SRB) assay; type: cell-based; conditions: human, salts
Procedure: (§1) Growth inhibition was measured in three human ovarian carcinoma cell lines (A2780, CH1, and SKOV-3) and one human cervix carcinoma cell line (A431) using the sulforhodamine B (SRB) assay. Briefly, between 3000 and 6000 cells were seeded into the wells of 96-well microtiter plates and allowed to attach overnight. Compounds (acid addition and quaternary dimethiodide salts) were dissolved at 500 μM in water and immediately added to wells in quadruplicate at final concentrations of 0.05, 0.25, 1, 5 and 25 μM. Following an incubation period of 96 hr, remaining cells were fixed with ice-cold 10% w/v trichloroacetic acid (30 min) and stained with 0.4% SRB in 1% v/v acetic acid (15 min). Mean absorbance at 540 nm for each drug concentration was expressed as a percentage of the control untreated well absorbance, and IC50 values (concentration required to inhibit cell growth by 50%) were determined for each agent.

[2] = Growth inhibition, SRB assay, mean over the four cell lines; type: cell-based; conditions: human, mean of A2780, CH1, SKOV-3, A431, 96 hr incubation, salts, read-out: Cytotoxicity - IC50, mean value for the four (4) cell lines
Procedure: as §1

[3] = A431 cervix carcinoma cells, A431, 96 hr incubation, read-out: Cytotoxicity - IC50 A431
[4] = A2780 ovarian carcinoma cells, A2780, 96 hr incubation, read-out: Cytotoxicity - IC50 A2780
[5] = CH1 ovarian carcinoma cells, CH1, 96 hr incubation, read-out: Cytotoxicity - IC50 CH1
[6] = SKOV-3 ovarian carcinoma cells, SKOV-3, 96 hr incubation, read-out: Cytotoxicity - IC50 SKOV-3

| IC50 (telomerase) [nM] | Structure (SMILES) | IC50 at 96 h [1, 3] [nM] | IC50 at 96 h [1, 4] [nM] | IC50 at 96 h [1, 5] [nM] | IC50 at 96 h [1, 6] [nM] | IC50 at 96 h [2] [nM] |
| --- | --- | --- | --- | --- | --- | --- |
| 540 | CCN(CC)CCNc1ccc2cc3ccc(NCCN(CC)CC)cc3nc2c1 [SB-ACI-05, 3,6-Bis[(N,N-diethylaminoethyl)amino]acridine] | 200 | 100 | 200 | 700 | – |
| 153 | c1cc2cc3ccc(NCCCCN4CCCC4)cc3nc2cc1NCCCCN1CCCC1 [SB-ACI-26, 3,6-Bis[(4-pyrolidino)butylamino]acridine] | – | – | – | – | 2500 |
| 480 | CN(C)CCNc1ccc2cc3ccc(NCCN(C)C)cc3nc2c1 [SB-ACI-10, 3,6-Bis[(N,N-dimethylaminoethyl)amino]acridine] | 200 | 200 | 100 | 200 | – |
| 218 | c1cc2cc3ccc(NCCCN4CCCCC4)cc3nc2cc1NCCCN1CCCCC1 [SB-ACI-25, 3,6-Bis[(3-piperidino)propylamino]acridine] | – | – | – | – | 500 |
| 222 | CCN(CC)CCCNc1ccc2cc3ccc(NCCCN(CC)CC)cc3nc2c1 [SB-ACI-24, 3,6-Bis[(3-diethylamino)propylamino]acridine] | – | – | – | – | 1800 |
| 205 | CCN(CC)CCCCNc1ccc2cc3ccc(NCCCCN(CC)CC)cc3nc2c1 [SB-ACI-28, 3,6-Bis[(4-diethylamino)butylamino]-acridine] | – | – | – | – | 6300 |
| 16800 | c1ccc(NCCCNc2ccc3cc4ccc(NCCCNc5ccccc5)cc4nc3c2)cc1 [SB-ACI-27, 3,6-Bis[(3-phenylamino)propylamino]acridine] | – | – | – | – | 1700 |
| 200 | CN(C)CCCNc1ccc2cc3ccc(NCCCN(C)C)cc3nc2c1 [SB-ACI-04, 3,6-Bis[(N,N-dimethylaminopropyl)amino]acridine] | 700 | 1800 | 2000 | 3900 | – |
| 181 | c1cc2cc3ccc(NCCCN4CCCC4)cc3nc2cc1NCCCN1CCCC1 [SB-ACI-23, 3,6-Bis[(3-pyrolidino)propylamino]acridine] | – | – | – | – | 1600 |
| 590 | CC(C)N(CCNc1ccc2cc3ccc(NCCN(C(C)C)C(C)C)cc3nc2c1)C(C)C [SB-ACI-06, 3,6-Bis[(N,N-diisoproyplaminoethyl)amino]acridine] | 1000 | 400 | 600 | 1300 | – |
